Measurements reported in US20080214480A1, “Method for Treating Sickle Cell Disease and Sickle Cell Disease Sequalae” (TRF Pharma, Inc., priority 2005, published 2008).

Tests used:
HUVEC cells = details: Barabino et al, Blood 1999; cited from earlier work
immobilized P-selectin = molecular target: T1, immobilized P-selectin (Homo sapiens, UniProt P16109); details: Matsui, Blood 2002; cited from earlier work
T1 sequence (P16109 42-830): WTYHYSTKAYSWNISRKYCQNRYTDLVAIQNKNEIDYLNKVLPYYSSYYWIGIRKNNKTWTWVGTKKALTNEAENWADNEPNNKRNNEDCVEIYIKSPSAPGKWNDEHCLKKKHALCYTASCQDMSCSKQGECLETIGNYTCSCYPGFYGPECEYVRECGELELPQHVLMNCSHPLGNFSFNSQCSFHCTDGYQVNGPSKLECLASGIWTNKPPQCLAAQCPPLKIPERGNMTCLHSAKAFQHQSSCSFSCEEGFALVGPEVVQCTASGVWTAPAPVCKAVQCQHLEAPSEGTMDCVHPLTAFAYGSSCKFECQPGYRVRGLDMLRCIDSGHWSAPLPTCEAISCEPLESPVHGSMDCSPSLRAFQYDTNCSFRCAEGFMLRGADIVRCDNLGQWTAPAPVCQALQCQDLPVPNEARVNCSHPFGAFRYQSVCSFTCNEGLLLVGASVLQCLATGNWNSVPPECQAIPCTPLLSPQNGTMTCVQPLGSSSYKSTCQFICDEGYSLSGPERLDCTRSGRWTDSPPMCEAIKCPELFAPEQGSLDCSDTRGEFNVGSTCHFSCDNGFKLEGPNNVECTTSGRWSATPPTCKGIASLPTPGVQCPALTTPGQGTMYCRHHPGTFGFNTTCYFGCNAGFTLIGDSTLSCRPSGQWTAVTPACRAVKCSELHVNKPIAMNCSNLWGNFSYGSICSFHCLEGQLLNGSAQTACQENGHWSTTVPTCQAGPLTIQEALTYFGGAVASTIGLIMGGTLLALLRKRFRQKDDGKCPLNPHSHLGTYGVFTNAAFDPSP

human endothelial cells = details: Gupta et al; cited from earlier work
[1] = test system: patients with sickle cell crises; details: four patients, 12-month self-administered intravenous minidose heparin vs 12 months off heparin; cited from earlier work
Human SCD patients = experiment: Computer-assisted intravital microscopy (CAIM) of conjunctival microcirculation, Example 1; type: in vivo; details: SCD patients hospitalized for VOC, high dose, relative to placebo group
Source text: Human SCD patients are enrolled to be studied by a non-invasive videotape of the conjunctival microcirculation. Recently, microvascular characteristics in SCD patients have been quantified using computer-assisted intravital microscopy (CAIM), a novel technology involving intravital video-microscopy coupled with imaging protocols, to study and analyze steady-state and vaso-occlusive crisis (VOC) microvascular characteristics in SCD (Cheung et al, Blood. 2002; 99:3999). During VOC, decreases in vascularity (“blanching”) occur as a result of vasoconstriction and diminished blood flow through the microvessels. […] The microvascular changes during VOC are transient and revert to steady-state values after crisis resolution. These specific reversals in VOC are used as the basis for this study to evaluate and quantify the effects of PPS on the microcirculation.
Because of the unique shape and form of conjunctival vessels, each vessel is easily identified and located to be re-studied. Each vessel serves as its own reference (control) to evaluate and quantify microvascular changes. […] CAIM is used to non-invasively videotape and longitudinally quantify the changes in venular diameter and red-cell velocity pre- and post-treatment of PPS, sulodexide or placebo at various time points post treatment.

[2] = test system: adhesion of RBC from sickle cell patients (ssRBC) to human umbilical vein endothelial cells (HUVEC); experiment: Variable height flow chamber adhesion of ssRBC to endothelial cells, Example 4; type: cell-based; details: HUVEC stimulated with thrombin or TNF-alpha, treated thirty minutes at 37° C., versus control preparations
Method: The effects of PPS or sulodexide on sickle cell erythrocyte adhesion are evaluated by in vitro study according to procedures similar to those described in Telen et al. (Blood, 2004, 104:3774); Niihara et al (BMC Blood Disorders, 2005, 5:4); and Barabino et al (Blood, 1999, 93:1422-29). In brief, a variable height flow chamber is used to quantitate the effects of PPS on the adhesion of RBC from sickle cell patients (ssRBC) to endothelial cells. Human umbilical vein endothelial cells (HUVEC) are grown on gelatin coated glass slides until confluent. The HUVEC's are then stimulated with thrombin or TNF-alpha and washed with PBS with Ca^+2 and Mg^+2. Following activation, the endothelial cells are treated with various concentrations of PPS for thirty minutes at 37° C. The endothelial cells are then washed in PBS with Ca^+2 and Mg^+2, mounted onto the variable height flow chamber where the final testing unit is assembled. […] Adhesion is quantitated by counting the adherent ssRBCs in a field in 7 different locations along the slide in the direction of the flow. The height of the chamber at each of these 7 locations is measured so that the shear stress can be calculated; note that the typical range seen is between 0.3 to 2.7 dynes/cm^2. […]

transplanted livers = details: livers pretreated with PPS; cited from earlier work
LNCaP = details: dependent on anchorage; cited from earlier work
DU145 = details: DU145, dependent on anchorage; cited from earlier work
PC-3 = details: PC-3, not dependent on anchorage; cited from earlier work
tumor cell adhesion = details: direct measurements, Schamhart; cited from earlier work
[3] = Wardle 1992; cited from earlier work

## heparin sulfate
HUVEC cells
  sickle cell adhesion to HUVEC cells: did not

## chondroitin sulfate
HUVEC cells
  sickle cell adhesion to HUVEC cells: inhibited

## low molecular weight heparin
Immobilized P-selectin
  in vitro flow adhesion of sickle cells to immobilized P-selectin: not low molecular weight heparin proved to be effective

## heparin
Immobilized P-selectin
  in vitro flow adhesion of sickle cells to immobilized P-selectin: inhibited
HUVEC cells
  sickle cell adhesion to HUVEC cells: inhibited
Human endothelial cells
  sickle erythrocyte adhesion to human endothelial cells in vitro: inhibited
[1]
  pain reduction: improvement in pain reduction

## Pentosan polysulfate [PPS]
Human SCD patients
  microvascular flow (venular diameter and red-cell velocity by CAIM): significant improvement in microvascular flow
[2]
  percentage of adherent cells: reduction
Transplanted livers
  leukocytes adhering to the vascular wall: significantly fewer
  reperfusion edema: no reperfusion edema
LNCaP
  growth and migration of tumor cell line: inhibited
DU145
  growth and migration of tumor cell line: inhibited
PC-3
  growth and migration of tumor cell line: no effect
Tumor cell adhesion
  tumor cell adhesion: inhibited
[3]
  anticoagulant potency relative to heparin: about one-fifteenth

## dextran sulfate
HUVEC cells
  sickle cell adhesion to HUVEC cells: inhibited
